Measured values published in US10800772B2 (Gilead Sciences, Inc., priority 2016, dated 2020).

How the values were obtained:
Type in all cases: cell-based, HIV-1
HIV-IIIb (wildtype) = assay: Antiviral assay in MT4 cells, HIV-IIIb wildtype; settings: Human immunodeficiency virus 1, IIIB, MT4, 120 h, read-out: WT EC50
How it was run: (§1)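 MT4 cells were pre-infected for 3 h at 37 °C with HIV-IIIb (0.004 m.o.i.), then plated at 2000 cells per well with 3-fold serially diluted compound (10 concentrations, quadruplicate). After 5 days at 37 °C, CellTiter-Glo luminescence was read, and EC50 was taken as the concentration giving a 50% decrease in signal.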

HIV-IIIb IN T174I BT = assay: Antiviral assay in MT4 cells, HIV-IIIb IN T174I BT virus (from viral breakthrough); settings: Human immunodeficiency virus 1, IIIB, MT4, 120 h, read-out: T174I BT EC50, MT4 cells, HIV-IIIb IN T174I BT (viral breakthrough), 5 days, CellTiter-Glo
How it was run: as §1

HIV-IIIb IN T174I DE = assay: Antiviral assay in MT4 cells, HIV-IIIb IN T174I DE virus (from dose escalation passaging); settings: Human immunodeficiency virus 1, IIIB, MT4, 120 h, read-out: T174I DE EC50, MT4 cells, HIV-IIIb IN T174I DE (dose escalation), 5 days, CellTiter-Glo
How it was run: as §1

SMILES | EC50 (HIV-IIIb (wildtype)) | EC50 (HIV-IIIb IN T174I BT) | EC50 (HIV-IIIb IN T174I DE)
COC(=O)N1CC[C@H](N2CCC(c3nn(C)c4ccc(-c5nc6cc(C)c([C@H](OC(C)(C)C)C(=O)O)c(-c7ccc(Cl)cc7)c6s5)nc34)CC2)C1 [Compound 193, (S)-2-(tert-butoxy)-2-(7-(4-chloro-phenyl)-2-(3-(1-((S)-l-(methoxy-carbonyl)pyrrolidin-3-yl)piperidin-4-yl)-1-methyl-1H-pyrazolo[4,3-b]pyridin-5-yl)-5-methylbenzo[d]thiazol-6-yl) acetic acid] | 3 nM | 87 nM | 265 nM
COCC(C)N1CC(c2nn(C)c3ccc(-c4nc5cc(C)c([C@H](OC(C)(C)C)C(=O)O)c(-c6ccc(Cl)cc6)c5s4)cc23)C1 (stereo partly drawn) [Compound 124, (2S)-2-(tert-butoxy)-2-(7-(4-chlorophenyl)-2-(3-(1-(1-methoxypropan-2-yl)azetidin-3-yl)-1-methyl-1H-indazol-5-yl)-5-methylbenzo[d]thiazol-6-yl)acetic acid] | 4 nM | 1440 nM | 3440 nM
CCN1CCN(c2nn(C)c3ccc(-c4nc5cc(C)c([C@H](OC(C)(C)C)C(=O)O)c(-c6ccc(Cl)cc6)c5s4)cc23)CC1=O [Compound 84, (S)-2-(tert-butoxy)-2-(7-(4-chlorophenyl)-2-(3-(4-ethyl-3-oxopiperazin-1-yl)-1-methyl-1H-indazol-5-yl)-5-methylbenzo[d]thiazol-6-yl)acetic acid] | 48 nM | 1250 nM | 1870 nM
Cc1cc2nc(-c3cnc4c(c3)c(N3CCN(C5COC5)CC3)nn4C)sc2c(-c2ccc(Cl)cc2)c1[C@H](OC(C)(C)C)C(=O)O [Compound 112, (S)-2-(tert-butoxy)-2-(7-(4-chlorophenyl)-5-methyl-2-(1-methyl-3-(4-(oxetan-3-yl)piperazin-1-yl)-1H-pyrazolo[3,4-b]pyridin-5-yl)benzo[d]thiazol-6-yl)acetic Acid] | 10 nM | 1250 nM | 2110 nM
Cc1cc2nc(-c3ccc4c(c3)c(N3CCC(C)(C(=O)N(C)C)CC3)nn4C)sc2c(-c2ccc(Cl)cc2)c1[C@H](OC(C)(C)C)C(=O)O [Compound 137, (S)-2-(tert-butoxy)-2-(7-(4-chloro-phenyl)-2-(3-(4-(dimethyl-carbamoyl)-4-methylpiperidin-1-yl)-1-methyl-1H-indazol-5-yl)-5-methylbenzo[d]thiazol-6-yl) acetic acid] | 10 nM | 697 nM | 962 nM
CCN1CCN(c2nn(C)c3ccc(-c4nc5cc(C)c([C@H](OC(C)(C)C)C(=O)O)c(-c6ccc(Cl)cc6)c5s4)cc23)C(=O)C1 [Compound 86, (S)-2-(tert-butoxy)-2-(7-(4-chlorophenyl)-2-(3-(4-ethyl-2-oxopiperazin-1-yl)-1-methyl-1H-indazol-5-yl)-5-methylbenzo[d]thiazol-6-yl)acetic acid] | 15 nM | 2330 nM | 2000 nM
COC(=O)N1CC(N2CCC(c3c4nc(-c5nc6cc(C)c([C@H](OC(C)(C)C)C(=O)O)c(-c7ccc(Cl)cc7)c6s5)ccc4nn3C(F)F)CC2)C1 [Compound 190, (S)-2-(tert-butoxy)-2-(7-(4-chloro-phenyl)-2-(2-(difluoromethyl)-3-(1-(1-(methoxy-carbonyl)azetidin-3-yl)piperidin-4-yl)-2H-pyrazolo [4,3-b]pyridin-5-yl)-5-methylbenzo [d]thiazol-6-yl) acetic acid] | 6 nM | 1760 nM | 2750 nM
Cc1cc2nc(-c3ccc4c(c3)c(N3CC5(CCCCC5)C3)nn4C)sc2c(-c2ccc(Cl)cc2)c1[C@H](OC(C)(C)C)C(=O)O [Compound 97, (S)-2-(tert-butoxy)-2-(7-(4-chlorophenyl)-5-methyl-2-(1-methyl-3-(2-azaspiro[3.5]nonan-2-yl)-1H-indazol-5-yl)benzo[d]thiazol-6-yl)acetic acid] | 150 nM | 6810 nM | 9190 nM
CCn1nc(C2CCN(C3CN(C(=O)OC)C3)CC2)c2nc(-c3nc4cc(C)c([C@H](OC(C)(C)C)C(=O)O)c(-c5ccc(Cl)cc5)c4s3)ccc21 [Compound 179, (S)-2-(tert-butoxy)-2-(7-(4-chloro-phenyl)-2-(1-ethyl-3-(1-(1-(methoxy-carbonyl)azetidin-3-yl)piperidin-4-yl)-1H-pyrazolo [4,3-b]pyridin-5-yl)-5-methylbenzo [d]thiazol-6-yl) acetic acid] | 3 nM | 28 nM | 108 nM
CO[C@@H]1CCN(c2nn(C)c3ccc(-c4nc5cc(C)c([C@H](OC(C)(C)C)C(=O)O)c(-c6ccc(Cl)cc6)c5s4)cc23)C1 [Compound 140, (S)-2-(tert-butoxy)-2-(7-(4-chloro-phenyl)-2-(3-((R)-3-methoxy-pyrrolidin-1-yl)-1-methyl-1H-indazol-5-yl)-5-methylbenzo[d]thiazol-6-yl) acetic acid] | 29 nM | 2370 nM | 2630 nM
Cc1cc2nc(-c3cnc4c(n3)c(C3CCN(C5COC5)CC3)nn4C)sc2c(-c2ccc(Cl)cc2)c1[C@H](OC(C)(C)C)C(=O)O [Compound 118, (S)-2-(tert-butoxy)-2-(7-(4-chlorophenyl)-5-methyl-2-(1-methyl-3-(1-(oxetan-3-yl)piperidin-4-yl)-1H-pyrazolo[3,4-b]pyrazin-5-yl)benzo[d]thiazol-6-yl)acetic acid] | 4 nM | 298 nM | 737 nM
COC1CCN(c2nn(C)c3ccc(-c4nc5cc(C)c([C@H](OC(C)(C)C)C(=O)O)c(-c6ccc(Cl)cc6)c5s4)cc23)CC1 [Compound 142, (S)-2-(tert-butoxy)-2-(7-(4-chloro-phenyl)-2-(3-(4-methoxypiperidin-1-yl)-1-methyl-1H-indazol-5-yl)-5-methylbenzo[d]thiazol-6-yl) acetic acid] | 12 nM | 1560 nM | 2330 nM
Cc1cc2nc(-c3cnc4c(c3)c(C3CCN(C5COC5)CC3)nn4C)sc2c(-c2ccc(Cl)cc2)c1[C@H](OC(C)(C)C)C(=O)O [Compound 113, (S)-2-(tert-butoxy)-2-(7-(4-chlorophenyl)-5-methyl-2-(1-methyl-3-(1-(oxetan-3-yl)piperidin-4-yl)-1H-pyrazolo[3,4-b]pyridin-5-yl)benzo[d]thiazol-6-yl)acetic acid] | 5 nM | 871 nM | 1520 nM
COC(=O)N1CC(N2CCC(c3nn(C)c4ncc(-c5nc6cc(C)c([C@H](OC(C)(C)C)C(=O)O)c(-c7ccc(Cl)cc7)c6s5)cc34)CC2)C1 [Compound 114, (S)-2-(tert-butoxy)-2-(7-(4-chlorophenyl)-2-(3-(1-(1-(methoxycarbonyl)azetidin-3-yl)piperidin-4-yl)-1-methyl-1H-pyrazolo[3,4-b]pyridin-5-yl)-5-methylbenzo[d]thiazol-6-yl)acetic acid] | 12 nM | 1080 nM | 2200 nM
CCC(=O)N1CC(N2CCC(c3nn(C)c4ccc(-c5nc6cc(C)c([C@H](OC(C)(C)C)C(=O)O)c(-c7ccc(Cl)cc7)c6s5)cc34)CC2)C1 [Compound 7, (S)-2-(tert-butoxy)-2-(7-(4-chlorophenyl)-5-methyl-2-(1-methyl-3-(1-(1-propionylazetidin-3-yl)piperidin-4-yl)-1H-indazol-5-yl)benzo[d]thiazol-6-yl)acetic Acid] | 14 nM | 114 nM | 138 nM
